In article PMC10635480, “An engineered thermally tolerant apo-cytochrome scaffold for metal-less incorporation of heme derivative” (PLOS ONE, 2023):

Assays:
[1] = target: T1, rC552 C14A (cytochrome c552, apo-form) (Thermus thermophilus, UniProt Q5SME3, C31A); assay: time-dependent UV-Vis reconstitution; format: binding; details: equimolar 5 uM, 25 °C
T1 construct: gene cycA; recombinant, E. coli BL21(DE3), pET-rC552 C14A; no tag mentioned; heme-free apo-form isolated by butyl-Sepharose

[2] = target: T2, rC552 C14A (cytochrome c552, apo-form) (Thermus thermophilus, UniProt Q5SME3, C31A/M86F); format: binding
T2 construct: gene cycA; recombinant, E. coli BL21(DE3), pET-rC552 C14A; no tag mentioned; heme-free apo-form isolated by butyl-Sepharose
T2 sequence (Q5SME3 18-148 C31A/M86F): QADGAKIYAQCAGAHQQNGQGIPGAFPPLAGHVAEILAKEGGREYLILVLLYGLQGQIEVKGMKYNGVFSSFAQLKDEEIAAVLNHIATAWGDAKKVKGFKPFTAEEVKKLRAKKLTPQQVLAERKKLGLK

T1 sequence (Q5SME3 18-148 C31A): as the sequence (Q5SME3 18-148 C31A/M86F) above, with F69M counted along it

Question: For `C=CC1=C(C)c2cc3[nH]c(cc4nc(cc5[nH]c(cc1n2)c(C)c5CCC(=O)O)C(CCC(=O)O)=C4C)c(C)c3C=C` [protoporphyrin IX (metal-free)], which “time-dependent UV-Vis reconstitution” value [1] is on record?
Answer: The value was “Time-dependent UV–Vis spectra show a rather slow reconstitution process while mixing equal concentrations”.

Question: What about the “Tm of reconstituted protein (not dTm)” value [2] of the same molecule?
Answer: The value was 58 °C.
